According to EP0774258A1, “Composition containing 5-fluorouracil and d4T for use in the treatment of retroviral infection” (priority 1995, dated 1997):
Values belong to the compound of their own block, whether it stands above or below them.

Assays:
[1] = system: clinical HIV-1 isolate, JEW; assay: Anti-HIV activity (p24 ELISA) in acutely infected PHA-stimulated PBMC, clinical isolate JEW; type: cell-based
Source text: The materials and experimental procedure used to obtain the results reported in Tables 1 and 2 are described below.
Virus - A clinical HIV-1 isolate, JEW, was titrated with a infectivity assay [Johnson, V. A. and R. E. Byington. 1990. Infectivity assay, p. 71-76. in A. Aldovini and B. D. Walker (ed.), Techniques in HIV Research. Stockton Press, New York], and used in our experiments.
Chemicals - d4T was supplied by Bristol-Myers Squibb Company. 5-Fluorouracil (5-FU) was purchased from Sigma.
• 1. […] 50 µl of 4 X 10^6/ml infected PBMC were added to each well in these plates to get a final 1 X 10^6 cells/ml, and incubated at 37°C. • 4. […] This was repeated with d4T using 5-FU concentrations of 0.1 µM and 0.5 µM, respectively.

PBMC = settings: human

Structure (SMILES): O=c1[nH]cc(F)c(=O)[nH]1 [5-FU, 5-fluorouracil]
- antiviral activity ([1]; Fluorouracil alone, up to 0.5 µM, PHA-PBMC acutely infected by isolate JEW): no antiviral activity
- 50% cytotoxicity concentration (PBMC): approximately 9 µM

Structure (SMILES): Cc1cn([C@H]2C=C[C@@H](CO)O2)c(=O)[nH]c1=O [d4T, 2',3'-didehydro-3'-deoxythymidine]
- Fold Enhancement ([1]; enhancement of d4T anti-HIV activity by 0.2 µM 5-FU, isolate JEW): 1 X

- EC50 ([1]; Human immunodeficiency virus 1, PBMC, 168 h, 5-FU concentration 0.5 µM, PHA-stimulated PBMC, isolate JEW, p24 at day 7, mean of three experiments, read-out: EC50 (nM) of ddI): 138 ± 26 nM
Structure (SMILES): OC[C@@H]1CC[C@H](n2cnc3c(O)ncnc32)O1 [ddI, 2',3'-dideoxyinosine]
- Fold Enhancement ([1]; effect of 0.2 µM 5-FU on ddI anti-HIV activity, isolate JEW): 0.6 X
- Fold Enhancement ([1]; effect of 0.5 µM 5-FU on ddI anti-HIV activity, isolate JEW): 0.7 X
